# Reference: patent US20250144067A1, “PERSONALIZED STARVATION THERAPY FOR CANCER” (Faeth Therapeutics, Inc., priority 2021, published 2025)
# Where a name gives a salt, the structure may show the parent alone.
# Experiments:
# [1] = tested on: NCI-H292 lung cancer cells; assay: FDA drug screening, complete media vs cholesterol-free media with simvastatin (TABLE 2); assay type: cell-based, human; details: for Cholesterol-free media + simvastatin (0.04 μM) / Complete Media: NCI-H292 cells
# [2] = tested on: NCI-H292 lung cancer cells; assay: FDA drug screening, complete media vs cholesterol-free media without statin (TABLE 1); assay type: cell-based, human
# [3] = FDA drug library screen, cholesterol-free media with simvastatin 0.04 μM
# [4] = FDA drug library screen, complete media
# [5] = complete media minus cholesterol-free media + simvastatin, >0 enhanced anti-cancer activity, about 0 neutral, <0 antagonist
# [6] = Complete minus Cholesterol-free, greater than 0 enhanced anti-cancer activity, about 0 neutral, below 0 antagonist
# [7] = NCI-H292 cells, FDA drug library screen, cholesterol-free media without statin
# [8] = NCI-H292 cells, FDA drug library screen, complete media
# [9] = cholesterol-free media with simvastatin 0.04 μM, FDA drug library screen (TABLE 2)
# [10] = complete media, FDA drug library screen (TABLE 2)
# [11] = complete media minus cholesterol-free media + simvastatin (0.04 μM), >0 enhanced anti-cancer activity, about 0 neutral, <0 antagonist
# [12] = NCI-H292 cells, cholesterol-free media without statin, FDA drug library screen
# [13] = NCI-H292 cells, complete media, FDA drug library screen
# [14] = complete vs cholesterol-free media, >0 enhanced anti-cancer activity, about 0 neutral, <0 antagonist
# [15] = FDA library drug in cholesterol-free media with simvastatin 0.04 μM
# [16] = complete media vs cholesterol-free media + simvastatin (0.04 μM), […]
# [17] = Complete minus Cholesterol-free, […]
# [18] = FDA library drug in complete media
# [19] = complete media vs cholesterol-free media + simvastatin (0.04 μM), >0 enhanced anti-cancer activity, about 0 neutral, <0 antagonist
# [20] = NCI-H292 cells, cholesterol-free media without statin
# [21] = complete vs cholesterol-free media, greater than 0 enhanced anti-cancer activity, about 0 neutral, below 0 antagonists
# [22] = cholesterol-free media with simvastatin 0.04 μM, cell growth value in FDA drug screen
# [23] = complete media, cell growth value in FDA drug screen
# [24] = Complete minus Cholesterol-free, >0 enhanced anti-cancer activity, about 0 neutral, <0 antagonist
# [25] = Complete minus Cholesterol-free, greater than 0 enhanced anti-cancer activity, about 0 neutral, below 0 antagonists
# [26] = NCI-H292 cells in cholesterol-free media without statin
# [27] = NCI-H292 cells in complete media
molecule,measurement,setting,value
CCCCCCCCCCCCCCCC[N+](C)(C)CCN(Cc1ccc(OC)cc1)c1ncccn1.[Br-] [Thonzonium (bromide)],Cholesterol-free media + simvastatin (0.04 μM),[1]; [3],0.2494
same,Complete Media,[1]; [4],0.5638
same,Difference,[1]; [5],0.31
same,Difference,[2]; [6],−0.13
same,Cholesterol-free,[2]; [7],0.179
same,Complete,[2]; [8],0.05155
CC(=O)OCC(=O)[C@@]12N=C(C)O[C@@H]1C[C@H]1[C@@H]3CCC4=CC(=O)C=C[C@]4(C)[C@H]3[C@@H](O)C[C@@]12C [Deflazacort],Cholesterol-free media + simvastatin (0.04 μM),[1]; [9],0.6257
same,Complete Media,[1]; [10],0.5899
same,Difference,[1]; [11],−0.04
same,Cholesterol-free,[2]; [12],0.629
same,Complete,[2]; [13],0.7651
same,Difference,[2]; [14],0.14
Almotriptan (malate),Cholesterol-free media + simvastatin (0.04 μM),[1]; [15],1.642
same,Difference,[1]; [16],−0.54
same,Difference,[2]; [17],−0.08
same,Cholesterol-free,[2]; [7],0.8422
same,Complete,[2]; [8],0.7605
Cc1ccc(=O)n(-c2ccccc2)c1 [Pirfenidone],Cholesterol-free media + simvastatin (0.04 μM),[1]; [15],1.397
same,Complete Media,[1]; [18],1.068
same,Difference,[1]; [19],−0.33
same,Cholesterol-free,[2]; [20],1.328
same,Complete,"[2]; NCI-H292 cells, complete media",0.9771
same,Difference,[2]; [21],−0.35
CN1C(=O)COc2c(C(=O)NC3CN4CCC3CC4)cc(Cl)cc21 (centres unmarked) [Azasetron (hydrochloride)],Cholesterol-free media + simvastatin (0.04 μM),[1]; [22],0.9264
same,Complete Media,[1]; [23],0.9552
same,Difference,[1]; [5],0.03
same,Difference,[2]; [24],−0.07
same,Cholesterol-free,[2]; [12],0.8277
same,Complete,[2]; [13],0.7612
Cl.NCC(O)c1ccc(O)c(O)c1 (racemic) [DL-Norepinephrine (hydrochloride)],Cholesterol-free media + simvastatin (0.04 μM),[1]; [15],0.9652
same,Complete Media,[1]; [18],0.176
same,Difference,[1]; [19],−0.79
same,Cholesterol-free,[2]; [12],1.105
same,Complete,[2]; [13],1.652
same,Difference,[2]; [14],0.55
CCN(CC)CCNC(=O)c1ccc(N)cc1 [Procainamide (hydrochloride)],Cholesterol-free media + simvastatin (0.04 μM),[1]; [15],1.529
same,Complete Media,[1]; [18],1.165
same,Difference,[1]; [19],−0.36
same,Difference,[2]; [25],−0.51
same,Cholesterol-free,[2]; [26],1.397
same,Complete,[2]; [27],0.8831
Vonoprazan (Fumarate),Complete Media,[1]; [18],0.7838
same,Difference,[1]; [16],−0.27
same,Cholesterol-free,[2]; [12],1.164
same,Complete,[2]; [13],1.405
same,Difference,"[2]; complete vs cholesterol-free media, […]",0.24
NC(=O)CC[C@H](N)C(=O)O [L-Glutamine],Cholesterol-free media + simvastatin (0.04 μM),[1]; [9],0.8178
same,Complete Media,[1]; [10],0.7954
same,Difference,[1]; [11],−0.02
same,Cholesterol-free,[2]; [12],1.026
same,Complete,[2]; [13],1.522
same,Difference,[2]; [14],0.50
O=c1ccn([C@@H]2O[C@H](COP(=O)([O-])OP(=O)([O-])OP(=O)([O-])OP(=O)([O-])OC[C@H]3O[C@@H](n4ccc(=O)[nH]c4=O)[C@H](O)[C@@H]3O)[C@@H](O)[C@H]2O)c(=O)[nH]1.[Na+].[Na+].[Na+].[Na+] [Diquafosol (tetrasodium)],Cholesterol-free media + simvastatin (0.04 μM),[1]; [3],1.438
same,Complete Media,[1]; [4],1.601
same,Difference,[1]; [5],0.16
same,Difference,[2]; [6],−0.16
same,Cholesterol-free,[2]; [7],0.9096
same,Complete,[2]; [8],0.7536
C=C1CC[C@@H]2[C@](C)(CO)[C@H](O)CC[C@@]2(C)[C@@H]1/C=C/C1=CCOC1=O [Dehydroandrographolide],Cholesterol-free media + simvastatin (0.04 μM),[1]; [15],1.79
same,Complete Media,[1]; [18],1.432
same,Difference,[1]; [16],−0.36
same,Difference,[2]; [17],−0.24
same,Cholesterol-free,[2]; [20],0.9695
same,Complete,"[2]; NCI-H292 cells, complete media",0.7339
C[C@H]1O[C@H](OC2[C@@H](O)[C@@H](O)C(O)[C@H](O)[C@H]2O)[C@@H](N)C[C@@H]1N=C(N)C(=O)O.Cl.O (some centres unmarked) [Kasugamycin (hydrochloride hydrate)],Cholesterol-free media + simvastatin (0.04 μM),[1]; [3],1.288
same,Difference,[1]; [16],−0.14
same,Difference,[2]; [17],−0.06
same,Cholesterol-free,[2]; [12],1.256
same,Complete,[2]; [13],1.194
CC#C[C@]1(O)CC[C@H]2[C@@H]3CCC4=CC(=O)CCC4=C3[C@@H](c3ccc(N(C)C)cc3)C[C@@]21C [Mifepristone],Cholesterol-free media + simvastatin (0.04 μM),[1]; [15],1.308
same,Complete Media,[1]; [18],1.019
same,Difference,[1]; [19],−0.29
same,Difference,[2]; [25],−0.57
same,Cholesterol-free,[2]; [26],1.574
same,Complete,[2]; [27],0.9996
COCCCN1CCC(NC(=O)c2cc(Cl)c(N)c3c2OCC3)CC1 [Prucalopride],Cholesterol-free media + simvastatin (0.04 μM),[1]; [22],0.8751
same,Complete Media,[1]; [23],0.9854
same,Difference,[1]; [5],0.11
same,Difference,[2]; [25],−0.49
same,Cholesterol-free,[2]; [26],1.522
same,Complete,[2]; [27],1.033
Cn1c(=O)cc(N2CCC[C@@H](N)C2)n(Cc2ccccc2C#N)c1=O.O=C(O)c1ccccc1 [Alogliptin (Benzoate)],Cholesterol-free media + simvastatin (0.04 μM),[1]; [3],1.087
same,Complete Media,[1]; [4],0.9402
same,Difference,[1]; [19],−0.15
same,Difference,[2]; [6],−0.08
same,Cholesterol-free,[2]; [7],0.8854
same,Complete,[2]; [8],0.8074
CC(=O)NS(=O)(=O)c1ccc(N)cc1 [Sulfacetamide],Cholesterol-free media + simvastatin (0.04 μM),[1]; [3],0.6778
same,Complete Media,[1]; [4],0.8793
same,Difference,[1]; [5],0.20
same,Difference,[2]; [6],−0.14
same,Cholesterol-free,[2]; [7],1.146
same,Complete,[2]; [8],1.008
Trelagliptin (succinate),Cholesterol-free media + simvastatin (0.04 μM),[1]; [3],1.757
same,Complete Media,[1]; [4],1.617
same,Difference,[1]; [19],−0.14
same,Cholesterol-free,[2]; [20],1.469
same,Complete,"[2]; NCI-H292 cells, complete media",1.135
same,Difference,[2]; [21],−0.33
COc1ccc(-c2cc(=O)c3c(O)cc(O[C@@H]4O[C@H](CO[C@@H]5O[C@@H](C)[C@H](O)[C@@H](O)[C@H]5O)[C@@H](O)[C@H](O)[C@H]4O)cc3o2)cc1O [Diosmin],Cholesterol-free media + simvastatin (0.04 μM),[1]; [3],1.252
same,Difference,[1]; [19],−0.10
same,Cholesterol-free,[2]; [12],0.7178
same,Complete,[2]; [13],1.465
same,Difference,[2]; [14],0.75
CN(C)CCCOc1nn(Cc2ccccc2)c2ccccc12 [Benzydamine (hydrochloride)],Cholesterol-free media + simvastatin (0.04 μM),[1]; [3],0.5074
same,Complete Media,[1]; [4],1.108
same,Difference,[1]; [5],0.60
same,Cholesterol-free,[2]; [20],1.444
same,Complete,"[2]; NCI-H292 cells, complete media",1.002
same,Difference,[2]; [21],−0.44
Cc1cc(C(C)(C)C)cc(C)c1CC1=NCCN1 [Xylometazoline (hydrochloride)],Cholesterol-free media + simvastatin (0.04 μM),[1]; [15],1.159
same,Complete Media,[1]; [18],0.7803
same,Difference,[1]; [16],−0.38
same,Difference,[2]; [17],−0.59
same,Cholesterol-free,[2]; [26],1.406
same,Complete,[2]; [27],0.8153
COc1cc(C2Oc3cc([C@H]4Oc5cc(O)cc(O)c5C(=O)[C@@H]4O)ccc3OC2CO)ccc1O (some centres unmarked) [Silibinin],Cholesterol-free media + simvastatin (0.04 μM),[1]; [15],2.112
same,Complete Media,[1]; [18],1.696
same,Difference,[1]; [19],−0.42
same,Cholesterol-free,[2]; [12],0.9386
same,Complete,[2]; [13],1.219
same,Difference,[2]; [14],0.28
CCOC(=O)OC(C)OC(=O)[C@@H]1N2C(=O)[C@@H](NC(=O)[C@H](N)c3ccccc3)[C@H]2SC1(C)C (some centres unmarked) [Bacampicillin (hydrochloride)],Cholesterol-free media + simvastatin (0.04 μM),[1]; [3],1.049
same,Complete Media,[1]; [4],0.956
same,Difference,[1]; [19],−0.09
same,Difference,[2]; [6],−0.18
same,Cholesterol-free,[2]; [7],1.212
same,Complete,[2]; [8],1.028
CO/N=C1\C[C@]2(C[C@@H]3C[C@@H](C/C=C(\C)C[C@@H](C)/C=C/C=C4\CO[C@@H]5[C@H](O)C(C)=C[C@@H](C(=O)O3)[C@]45O)O2)O[C@H](/C(C)=C/C(C)C)[C@H]1C [Moxidectin],Cholesterol-free media + simvastatin (0.04 μM),[1]; drug in cholesterol-free media with simvastatin 0.04 μM,0.8625
same,Complete Media,[1]; drug in complete media,0.6882
same,Difference,[1]; [19],−0.17
same,Difference,[2]; [24],−0.21
same,Cholesterol-free,[2]; [20],0.4893
same,Complete,"[2]; NCI-H292 cells, complete media",0.2816
